# What was measured:
# Format in all cases: in vivo
# [1] = system: barnyardgrass (Echinochloa crus-galli); experiment: Test B flooded paddy test, barnyardgrass; conditions: Flood
# How it was run: (§1)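 Compounds were added directly to paddy water over 2-leaf-stage plants in pots flooded 3 cm above soil, water depth maintained. Visual injury scored against controls after 13 to 15 days in greenhouse, 0 (none) to 100 (complete control); dash indicates no result.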
# [2] = system: giant foxtail (Setaria faberi); experiment: Test A preemergence, giant foxtail; conditions: 0 to 100 scale (0 no effect, 100 complete control)
# How it was run: (§2)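 Species planted together in a loam soil and sand blend received compound either as a preemergence soil spray or as a postemergence treatment when 2–10 cm tall with one to two leaves. About ten days later, injury was visually rated relative to untreated plants on a 0–100 scale.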
# [3] = system: umbrella sedge (Cyperus difformis); experiment: Test B flooded paddy test, umbrella sedge; conditions: Flood, scale 0 to 100
# How it was run: as §1
# [4] = system: pigweed (Amaranthus retroflexus); experiment: Test A preemergence, pigweed; conditions: 0 to 100 scale (0 no effect, 100 complete control)
# How it was run: as §2
# [5] = system: rice (Oryza sativa); experiment: Test B flooded paddy test, rice; conditions: Flood, scale 0 to 100
# How it was run: as §1
# [6] = system: barnyardgrass (Echinochloa crus-galli); experiment: Test A postemergence, barnyardgrass; conditions: 0 to 100 scale (0 no effect, 100 complete control)
# How it was run: as §2
# [7] = system: corn (Zea mays); experiment: Test A preemergence, corn; conditions: 0 to 100 scale (0 no effect, 100 complete control)
# How it was run: as §2
# [8] = system: large crabgrass (Digitaria sanguinalis); experiment: Test A postemergence, large crabgrass; conditions: 0 to 100 scale (0 no effect, 100 complete control)
# How it was run: as §2
# [9] = system: morningglory (Ipomoea spp.); experiment: Test A postemergence, morningglory; conditions: 0 to 100 scale (0 no effect, 100 complete control)
# How it was run: as §2
# [10] = system: corn (Zea mays); experiment: Test A postemergence, corn; conditions: 0 to 100 scale (0 no effect, 100 complete control)
# How it was run: as §2
# [11] = system: ducksalad (Heteranthera limosa); experiment: Test B flooded paddy test, ducksalad; conditions: Flood, scale 0 to 100
# How it was run: as §1
# [12] = system: velvetleaf (Abutilon theophrasti); experiment: Test A preemergence, velvetleaf; conditions: 0 to 100 scale (0 no effect, 100 complete control)
# How it was run: as §2
# [13] = system: wheat (Triticum aestivum); experiment: Test A postemergence, wheat; conditions: 0 to 100 scale (0 no effect, 100 complete control)
# How it was run: as §2
# [14] = system: barnyardgrass (Echinochloa crus-galli); experiment: Test A preemergence, barnyardgrass; conditions: 0 to 100 scale (0 no effect, 100 complete control)
# How it was run: as §2
# [15] = system: velvetleaf (Abutilon theophrasti); experiment: Test A postemergence, velvetleaf; conditions: 0 to 100 scale (0 no effect, 100 complete control)
# How it was run: as §2
# [16] = system: morningglory (Ipomoea spp.); experiment: Test A preemergence, morningglory; conditions: 0 to 100 scale (0 no effect, 100 complete control)
# How it was run: as §2
# [17] = system: large crabgrass (Digitaria sanguinalis); experiment: Test A preemergence, large crabgrass; conditions: 0 to 100 scale (0 no effect, 100 complete control)
# How it was run: as §2
# [18] = system: giant foxtail (Setaria faberi); experiment: Test A postemergence, giant foxtail; conditions: 0 to 100 scale (0 no effect, 100 complete control)
# How it was run: as §2
# [19] = system: wheat (Triticum aestivum); experiment: Test A preemergence, wheat; conditions: 0 to 100 scale (0 no effect, 100 complete control)
# How it was run: as §2
# [20] = system: pigweed (Amaranthus retroflexus); experiment: Test A postemergence, pigweed; conditions: 0 to 100 scale (0 no effect, 100 complete control)
# How it was run: as §2
# [21] = 250 g ai/ha, scale 0 to 100 (0 no effect, 100 complete control)
structure (smiles),measurement,setting,value
Cn1c(=O)c(CS(=O)(=O)C2=NOC(C)(C)C2)nc2ccccc21 [Compound 23],"Plant response rating, Barnyardgrass","[1]; 62 g ai/ha, scale 0 to 100",0
same,"Plant response rating, Barnyardgrass",[1]; [21],0
same,"Plant response rating, Foxtail, Giant",[2]; 125 g ai/ha,30
same,"Plant response rating, Foxtail, Giant",[2]; 500 g ai/ha,80
same,"Plant response rating, Sedge, Umbrella",[3]; 62 g ai/ha,0
same,"Plant response rating, Sedge, Umbrella",[3]; 250 g ai/ha,0
same,"Plant response rating, Pigweed",[4]; 125 g ai/ha,0
same,"Plant response rating, Pigweed",[4]; 500 g ai/ha,10
same,"Plant response rating, Rice",[5]; 62 g ai/ha,0
same,"Plant response rating, Rice",[5]; 250 g ai/ha,0
same,"Plant response rating, Barnyardgrass",[6]; 125 g ai/ha,40
same,"Plant response rating, Barnyardgrass",[6]; 500 g ai/ha,60
same,"Plant response rating, Corn",[7]; 125 g ai/ha,0
same,"Plant response rating, Corn",[7]; 500 g ai/ha,0
same,"Plant response rating, Crabgrass, Large",[8]; 125 g ai/ha,30
same,"Plant response rating, Crabgrass, Large",[8]; 500 g ai/ha,60
same,"Plant response rating, Morningglory",[9]; 125 g ai/ha,0
same,"Plant response rating, Morningglory",[9]; 500 g ai/ha,0
same,"Plant response rating, Corn",[10]; 125 g ai/ha,0
same,"Plant response rating, Corn",[10]; 500 g ai/ha,0
same,"Plant response rating, Ducksalad",[11]; 62 g ai/ha,0
same,"Plant response rating, Ducksalad",[11]; 250 g ai/ha,0
same,"Plant response rating, Velvetleaf",[12]; 125 g ai/ha,0
same,"Plant response rating, Velvetleaf",[12]; 500 g ai/ha,0
same,"Plant response rating, Wheat",[13]; 125 g ai/ha,0
same,"Plant response rating, Wheat",[13]; 500 g ai/ha,0
same,"Plant response rating, Barnyardgrass",[14]; 125 g ai/ha,20
same,"Plant response rating, Barnyardgrass",[14]; 500 g ai/ha,40
same,"Plant response rating, Velvetleaf",[15]; 125 g ai/ha,0
same,"Plant response rating, Velvetleaf",[15]; 500 g ai/ha,0
same,"Plant response rating, Morningglory",[16]; 125 g ai/ha,0
same,"Plant response rating, Crabgrass, Large",[17]; 125 g ai/ha,10
same,"Plant response rating, Crabgrass, Large",[17]; 500 g ai/ha,70
same,"Plant response rating, Foxtail, Giant",[18]; 125 g ai/ha,10
same,"Plant response rating, Foxtail, Giant",[18]; 500 g ai/ha,60
same,"Plant response rating, Wheat",[19]; 125 g ai/ha,0
same,"Plant response rating, Wheat",[19]; 500 g ai/ha,0
same,"Plant response rating, Pigweed",[20]; 125 g ai/ha,0
same,"Plant response rating, Pigweed",[20]; 500 g ai/ha,0
CC1(C)CC([S+]([O-])Cc2c(C(F)(F)C(F)(F)F)nc3n(c2=O)CCCS3)=NO1 (stereo not drawn) [Compound 40],"Plant response rating, Barnyardgrass","[1]; 31 g ai/ha, scale 0 to 100",0
same,"Plant response rating, Barnyardgrass","[1]; 62 g ai/ha, scale 0 to 100",0
same,"Plant response rating, Barnyardgrass","[1]; 125 g ai/ha, scale 0 to 100",0
same,"Plant response rating, Barnyardgrass",[1]; [21],0
same,"Plant response rating, Foxtail, Giant",[2]; 125 g ai/ha,0
same,"Plant response rating, Foxtail, Giant",[2]; 500 g ai/ha,80
same,"Plant response rating, Sedge, Umbrella",[3]; 31 g ai/ha,0
same,"Plant response rating, Sedge, Umbrella",[3]; 62 g ai/ha,0
same,"Plant response rating, Sedge, Umbrella",[3]; 125 g ai/ha,0
same,"Plant response rating, Sedge, Umbrella",[3]; 250 g ai/ha,0
same,"Plant response rating, Pigweed",[4]; 125 g ai/ha,0
same,"Plant response rating, Pigweed",[4]; 500 g ai/ha,0
same,"Plant response rating, Rice",[5]; 31 g ai/ha,0
same,"Plant response rating, Rice",[5]; 62 g ai/ha,0
same,"Plant response rating, Rice",[5]; 125 g ai/ha,0
same,"Plant response rating, Rice",[5]; 250 g ai/ha,0
same,"Plant response rating, Barnyardgrass",[6]; 125 g ai/ha,10
same,"Plant response rating, Barnyardgrass",[6]; 500 g ai/ha,70
same,"Plant response rating, Corn",[7]; 125 g ai/ha,0
same,"Plant response rating, Corn",[7]; 500 g ai/ha,0
same,"Plant response rating, Crabgrass, Large",[8]; 125 g ai/ha,0
same,"Plant response rating, Crabgrass, Large",[8]; 500 g ai/ha,40
same,"Plant response rating, Morningglory",[9]; 125 g ai/ha,0
same,"Plant response rating, Morningglory",[9]; 500 g ai/ha,10
same,"Plant response rating, Corn",[10]; 125 g ai/ha,0
same,"Plant response rating, Corn",[10]; 500 g ai/ha,20
same,"Plant response rating, Ducksalad",[11]; 31 g ai/ha,0
same,"Plant response rating, Ducksalad",[11]; 62 g ai/ha,0
same,"Plant response rating, Ducksalad",[11]; 125 g ai/ha,0
same,"Plant response rating, Ducksalad",[11]; 250 g ai/ha,0
same,"Plant response rating, Velvetleaf",[12]; 125 g ai/ha,0
same,"Plant response rating, Velvetleaf",[12]; 500 g ai/ha,0
same,"Plant response rating, Wheat",[13]; 125 g ai/ha,0
same,"Plant response rating, Wheat",[13]; 500 g ai/ha,50
same,"Plant response rating, Barnyardgrass",[14]; 125 g ai/ha,0
same,"Plant response rating, Barnyardgrass",[14]; 500 g ai/ha,60
same,"Plant response rating, Velvetleaf",[15]; 125 g ai/ha,0
same,"Plant response rating, Velvetleaf",[15]; 500 g ai/ha,0
same,"Plant response rating, Morningglory",[16]; 125 g ai/ha,0
same,"Plant response rating, Morningglory",[16]; 500 g ai/ha,0
same,"Plant response rating, Crabgrass, Large",[17]; 125 g ai/ha,0
same,"Plant response rating, Crabgrass, Large",[17]; 500 g ai/ha,70
same,"Plant response rating, Foxtail, Giant",[18]; 125 g ai/ha,0
same,"Plant response rating, Foxtail, Giant",[18]; 500 g ai/ha,50
same,"Plant response rating, Wheat",[19]; 125 g ai/ha,0
same,"Plant response rating, Wheat",[19]; 500 g ai/ha,0
same,"Plant response rating, Pigweed",[20]; 125 g ai/ha,0
same,"Plant response rating, Pigweed",[20]; 500 g ai/ha,0

# — patent US20100099561A1, “HETEROBICYCLIC ALKYLTHIO-BRIDGED ISOXAZOLINES” (E.I. DU PONT DE NEMOURS AND COMPANY, priority 2008, published 2010)
